Literature values, collected in patent US6491946B1, “Pharmaceutical levothyroxine preparation” (Merck Patent Gesellschaft, priority 1998, dated 2002).
Read-outs that look alike come from different tables or passages of the source.

Solubility (in ethanol): soluble with great difficulty
Solubility (in water): soluble with great difficulty
Compound: N[C@@H](Cc1cc(I)c(Oc2cc(I)c(O)c(I)c2)c(I)c1)C(=O)O [Levothyroxine sodium, levothyroxine sodium]
